Results: PMC11845477, “Exploring the principles behind antibiotics with limited resistance” (Nature Communications, 2025)
Where a SMILES comes first, the peptide text is derived from it. Bridges are numbered along the chain shown (N, C = ends). [ ]: non-standard residue; d: D form. The star is where a group is joined. X2 = CC[C@H](C)CCCCC(=O)*; Dab = NCC[C@H](N)C(=O)O

Key:
[1] = system: E. coli BW25113: pUCacrAB; assay: AcrAB-TolC efflux overexpression screen, relative MIC; format: cell-based, Escherichia coli; conditions: pUCacrAB vs empty pUC118 control
Outline: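 Broth microdilution in MHB (supplemented MS for SCH79797), ten-step antibiotic dilutions, 5 × 10^5 cells/mL, 18 h at 37 °C with shaking; MIC is lowest concentration giving background-corrected OD600 < 0.05. Relative MIC as log2 ratio: ΔacrB vs wild-type; pUCacrAB vs empty pUC118 (plasmid strains under 100 µg/mL ampicillin). Mean of 3 biological replicates.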

[2] = system: A. baumannii ATCC 17978 (SEN) and A. baumannii ATCC BAA-1605 (MDR); assay: Adaptive laboratory evolution (ALE), relative MIC of evolved lines; format: cell-based, Acinetobacter baumannii
Outline: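 Ten parallel populations per antibiotic–ancestor pair were evolved in MHB at 37 °C, starting near 50% growth-inhibiting drug. Every 72 h they were passaged into 0.5–2.5× increasing concentrations, keeping the highest-drug well with OD600 > 0.2.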

[3] = AB-SEN (Acinetobacter baumannii ATCC 17978), evolved line 4 adapted to the named antibiotic
[4] = AB-SEN (Acinetobacter baumannii ATCC 17978), evolved line 7 adapted to the named antibiotic
[5] = AB-SEN, Acinetobacter baumannii ATCC 17978, evolved line 2 versus ancestor
[6] = AB-SEN, Acinetobacter baumannii ATCC 17978, evolved line 3 versus ancestor
[7] = AB-SEN, Acinetobacter baumannii ATCC 17978, evolved line 4 versus ancestor
[8] = AB-SEN, Acinetobacter baumannii ATCC 17978, evolved line 6 versus ancestor
[9] = AB-SEN, Acinetobacter baumannii ATCC 17978, evolved line 7 versus ancestor
[10] = AB-SEN, Acinetobacter baumannii ATCC 17978, evolved line 8 versus ancestor
[11] = AB-SEN, Acinetobacter baumannii ATCC 17978, evolved line 9 versus ancestor
[12] = AB-SEN, Acinetobacter baumannii ATCC 17978, evolved line 10 versus ancestor
[13] = AB-SEN (Acinetobacter baumannii ATCC 17978), evolved line 1
[14] = AB-SEN (Acinetobacter baumannii ATCC 17978), evolved line 1 adapted to the named antibiotic
[15] = AB-SEN (Acinetobacter baumannii ATCC 17978), evolved line 2
[16] = AB-SEN (Acinetobacter baumannii ATCC 17978), evolved line 3
[17] = AB-SEN (Acinetobacter baumannii ATCC 17978), evolved line 4
[18] = AB-SEN (Acinetobacter baumannii ATCC 17978), evolved line 6
[19] = AB-SEN (Acinetobacter baumannii ATCC 17978), evolved line 8
[20] = AB-SEN (Acinetobacter baumannii ATCC 17978), evolved line 8 adapted to the named antibiotic
[21] = AB-SEN (Acinetobacter baumannii ATCC 17978), evolved line 9
[22] = AB-SEN (Acinetobacter baumannii ATCC 17978), evolved line 10
[23] = AB-SEN, Acinetobacter baumannii ATCC 17978, evolved line 7

Row | Compound | Relative MIC (log2) ([1]; replicate 1) | Relative MIC (log2) ([1]; replicate 2) | Relative MIC (log2) ([1]; replicate 3) | Relative MIC (log10) [2, 3] | Relative MIC (log10) [2, 4] | Relative MIC [2, 5] | Relative MIC [2, 6] | Relative MIC [2, 7] | Relative MIC [2, 8] | Relative MIC [2, 9] | Relative MIC [2, 10] | Relative MIC [2, 11] | Relative MIC [2, 12] | Relative MIC [2, 13] | Relative MIC (log10) [2, 14] | Relative MIC [2, 15] | Relative MIC [2, 16] | Relative MIC [2, 17] | Relative MIC [2, 18] | Relative MIC [2, 19] | further results
1 | CNC(C)C1CCC(N)C(OC2C(N)CC(N)C(OC3OCC(C)(O)C(NC)C3O)C2O)O1 (stereo not drawn) [Gentamicin] | 0 | 0 | 0 | 2.709 | 2.709 | 512 | 256 | 512 | 256 | 512 | 128 | 128 | 512 | – | – | – | – | – | – | – | Relative MIC (log10) ([2]; AB-SEN (Acinetobacter baumannii ATCC 17978), evolved line 2 adapted to the named antibiotic): 2.709; Relative MIC (log10) ([2]; AB-SEN (Acinetobacter baumannii ATCC 17978), evolved line 5 adapted to the named antibiotic): 2.709; Relative MIC (log10) ([2]; AB-SEN (Acinetobacter baumannii ATCC 17978), evolved line 10 adapted to the named antibiotic): 2.709; Relative MIC ([2]; AB-SEN, Acinetobacter baumannii ATCC 17978, evolved line 5 versus ancestor): 512; Relative MIC ([2]; Acinetobacter baumannii ATCC 17978 (AB-SEN), evolved line 2): 512; Relative MIC ([2]; Acinetobacter baumannii ATCC 17978 (AB-SEN), evolved line 3): 256; Relative MIC ([2]; Acinetobacter baumannii ATCC 17978 (AB-SEN), evolved line 4): 512; Relative MIC ([2]; Acinetobacter baumannii ATCC 17978 (AB-SEN), evolved line 5): 512; Relative MIC ([2]; Acinetobacter baumannii ATCC 17978 (AB-SEN), evolved line 6): 256; Relative MIC ([2]; Acinetobacter baumannii ATCC 17978 (AB-SEN), evolved line 7): 512; Relative MIC ([2]; Acinetobacter baumannii ATCC 17978 (AB-SEN), evolved line 8): 128; Relative MIC ([2]; Acinetobacter baumannii ATCC 17978 (AB-SEN), evolved line 9): 128; Relative MIC ([2]; Acinetobacter baumannii ATCC 17978 (AB-SEN), evolved line 10): 512
2 | O=c1ccc2ncc(=O)n3c2n1C[C@H]3CN1CCC(NCc2cc3c(cn2)OCCC3)CC1 [Gepotidacin] | 2 | 2 | 2 | 1.806 | 1.806 | 128 | 128 | 64 | 128 | 64 | 64 | 64 | 64 | 64 | 1.806 | 128 | 128 | 64 | 128 | 64 | Relative MIC (log10) [2, 20]: 1.806; Relative MIC [2, 21]: 64; Relative MIC (log10) ([2]; AB-SEN (Acinetobacter baumannii ATCC 17978), evolved line 9 adapted to the named antibiotic): 1.806; Relative MIC [2, 22]: 64; Relative MIC ([2]; AB-SEN, Acinetobacter baumannii ATCC 17978, evolved line 1 versus ancestor): 64; Relative MIC [2, 23]: 64
3 | CN(C)c1cc(CNCC(C)(C)C)c(O)c2c1C[C@H]1C[C@H]3[C@H](N(C)C)C(O)=C(C(N)=O)C(=O)[C@@]3(O)C(O)=C1C2=O [Omadacycline] | 0.585 | 0.585 | 0.585 | – | 1.806 | – | – | – | – | – | – | – | – | 32 | 1.505 | 64 | 64 | 32 | 128 | 64 | Relative MIC (log10) ([2]; AB-SEN (Acinetobacter baumannii ATCC 17978), evolved line 3 adapted to the named antibiotic): 1.806; Relative MIC ([2]; AB-SEN (Acinetobacter baumannii ATCC 17978), evolved line 5): 128; Relative MIC (log10) ([2]; AB-SEN (Acinetobacter baumannii ATCC 17978), evolved line 6 adapted to the named antibiotic): 2.107; Relative MIC (log10) [2, 20]: 1.806; Relative MIC [2, 21]: 32; Relative MIC [2, 22]: 32; Relative MIC ([2]; AB-SEN ATCC 17978, evolved line 1, evolved line vs ancestor): 32; Relative MIC ([2]; AB-SEN ATCC 17978, evolved line 2, evolved line vs ancestor): 64; Relative MIC ([2]; AB-SEN ATCC 17978, evolved line 3, evolved line vs ancestor): 64; Relative MIC ([2]; AB-SEN ATCC 17978, evolved line 4, evolved line vs ancestor): 32; Relative MIC ([2]; AB-SEN ATCC 17978, evolved line 5, evolved line vs ancestor): 128; Relative MIC ([2]; AB-SEN ATCC 17978, evolved line 6, evolved line vs ancestor): 128; Relative MIC ([2]; AB-SEN ATCC 17978, evolved line 7, evolved line vs ancestor): 64; Relative MIC ([2]; AB-SEN ATCC 17978, evolved line 8, evolved line vs ancestor): 64; Relative MIC ([2]; AB-SEN ATCC 17978, evolved line 9, evolved line vs ancestor): 32; Relative MIC ([2]; AB-SEN ATCC 17978, evolved line 10, evolved line vs ancestor): 32; Relative MIC [2, 23]: 64
4 | CC[C@H](C)CCCCC(=O)N[C@@H](CCN)C(=O)N[C@H](C(=O)N[C@@H](CCN)C(=O)N[C@H]1CCNC(=O)[C@H]([C@@H](C)O)NC(=O)[C@H](CCN)NC(=O)[C@H](CCN)NC(=O)[C@H](CC(C)C)NC(=O)[C@@H](Cc2ccccc2)NC(=O)[C@H](CCN)NC1=O)[C@@H](C)O [Polymyxin B] (X2-[Dab]T[Dab][Dab][Dab][dF]L[Dab][Dab]T; lactam 4-C (inferred); N-terminus assumed) | 0 | 0 | 0 | – | – | – | – | – | – | – | – | – | – | – | – | – | – | – | – | – | Relative MIC (log10) ([2]; AB-MDR (Acinetobacter baumannii ATCC BAA 1605), evolved line 4): 3.0103 log10; Relative MIC (log10) ([2]; AB-MDR (Acinetobacter baumannii ATCC BAA 1605), evolved line 5): 3.0103 log10; Relative MIC (log10) ([2]; AB-MDR (Acinetobacter baumannii ATCC BAA 1605), evolved line 6): 3.0103 log10; Relative MIC (log10) ([2]; AB-MDR (Acinetobacter baumannii ATCC BAA 1605), evolved line 7): 3.0103 log10; Relative MIC (log10) ([2]; AB-MDR (Acinetobacter baumannii ATCC BAA 1605), evolved line 9): 3.0103 log10; Relative MIC (log10) [2, 13]: 2.709 log10; Relative MIC (log10) [2, 15]: 2.709 log10; Relative MIC (log10) [2, 17]: 2.709 log10; Relative MIC (log10) [2, 18]: 2.709 log10; Relative MIC (log10) [2, 21]: 2.408 log10
